Test results reported in ChEMBL document CHEMBL4602605, “Fluoroquinolones structural and medicinal developments (2013-2018): Where are we now?” (Bioorg Med Chem, 2019).
Converted amounts (≈) assume the structure as drawn.

How the values were obtained:
Format in all cases: functional
Escherichia coli [1] = assay: Antimicrobial activity against ESBL non-producing Escherichia coli ATCC 25922
Enterobacter cloacae = assay: Antimicrobial activity against Enterobacter cloacae ATCC 43560
Klebsiella pneumoniae [2] = assay: Antimicrobial activity against ESBL-producing Klebsiella pneumoniae ATCC 700603
[3] = system: Acinetobacter calcoaceticus; assay: Antimicrobial activity against Acinetobacter calcoaceticus ATCC 19606
Pseudomonas aeruginosa [4] = assay: Antimicrobial activity against Pseudomonas aeruginosa ATCC 27853
Pseudomonas aeruginosa [5] = assay: Antibacterial activity against Pseudomonas aeruginosa NCDC 105 by single disk method
Mus musculus = assay: Analgesic activity in Swiss albino mouse assessed as acetic acid-induced writhing number at 50 mg/kg pretreated for 30 mins followed by acetic acid challenge and measured after 5 to 15 mins (reference value: 30.8 +/- 0.37)
Staphylococcus aureus [6] = assay: Antibacterial activity against Staphylococcus aureus NCDC 110 by single disk method
Escherichia coli [7] = assay: Antibacterial activity against Escherichia coli NCDC 134 by single disk method
Bacillus subtilis = assay: Antibacterial activity against Bacillus subtilis NCDC 71 by single disk method
Metaphire posthuma = assay: Anthelmintic activity against Pheretima posthuma assessed as mean paralysing time at 200 mg/ml
Paenibacillus polymyxa = assay: Antibacterial activity against Paenibacillus polymyxa NCDC 64 by single disk method
Staphylococcus aureus [8] = assay: Antimicrobial activity against methicillin-susceptible Staphylococcus aureus clinical isolate incubated for 16 hrs by CLSI based agar dilution method
Staphylococcus aureus [9] = assay: Antimicrobial activity against methicillin-resistant Staphylococcus aureus clinical isolate incubated for 16 hrs by CLSI based agar dilution method
Klebsiella pneumoniae [10] = assay: Antimicrobial activity against Klebsiella pneumoniae ATCC 29522 incubated for 16 hrs by CLSI-based agar dilution method; details: ATCC 29522, 16 h
Escherichia coli [11] = assay: Antimicrobial activity against Escherichia coli ATCC 700603 incubated for 16 hrs by CLSI-based agar dilution method; details: ATCC 700603, 16 h
[12] = system: Staphylococcus epidermidis; assay: Antimicrobial activity against methicillin-susceptible Staphylococcus epidermidis clinical isolate incubated for 16 hrs by CLSI based agar dilution method
[13] = system: Staphylococcus epidermidis; assay: Antimicrobial activity against methicillin-resistant Staphylococcus epidermidis clinical isolate incubated for 16 hrs by CLSI based agar dilution method

SMILES	MIC (Escherichia coli [1]) [µM]	MIC (Enterobacter cloacae) [µM]	MIC (Klebsiella pneumoniae [2]) [µM]	MIC [3] [µM]	MIC (Pseudomonas aeruginosa [4]) [µM]	MIC (Pseudomonas aeruginosa [5]) [µg/mL]	MIC (Staphylococcus aureus [6]) [µg/mL]	MIC (Escherichia coli [7]) [µg/mL]	MIC (Bacillus subtilis) [µg/mL]	MIC (Paenibacillus polymyxa) [µg/mL]	Activity (Mus musculus)	Time (Metaphire posthuma) [min]	also measured
CCn1cc(C(=O)O)c(=O)c2cc(F)c(N3CCN(CC(=O)Nc4nc5c(Cl)ccc(Cl)c5s4)CC3)cc21						30 (≈ 51.9 µM)	40 (≈ 69.1 µM)	60 (≈ 104 µM)	20 (≈ 34.6 µM)	15 (≈ 25.9 µM)	17.4	26.8	
COc1c(N2CCN(CC(=O)Nc3nc4ccc(Cl)c(Cl)c4s3)C(C)C2)c(F)cc2c(=O)c(C(=O)O)cn(C3CC3)c12 (stereo not given)						30 (≈ 47.3 µM)	10 (≈ 15.8 µM)	70 (≈ 110 µM)	25 (≈ 39.4 µM)	25 (≈ 39.4 µM)	0.73	2.7	
COc1c(N2C[C@H]3CCCN(C(O)Cn4cc([N+](=O)[O-])nc4Cl)[C@H]3C2)c(F)cc2c(=O)c(C(=O)O)cn(C3CC3)c12 (stereo not given in full)													MIC (Staphylococcus aureus [8]): 0.5 µg/mL (≈ 0.846 µM); MIC (Staphylococcus aureus [9]): 16 µg/mL (≈ 27.1 µM); MIC (Klebsiella pneumoniae [10]): > 32 µg/mL; MIC (Escherichia coli [11]): 2 µg/mL (≈ 3.38 µM); MIC [12]: 0.25 µg/mL (≈ 0.423 µM); MIC [13]: 0.125 µg/mL (≈ 0.212 µM)
CCn1cc(C(=O)O)c(=O)c2cc(F)c(N3CCN(CC(=O)Nc4nc5ccc(F)cc5s4)CC3)cc21						40 (≈ 75.8 µM)	45 (≈ 85.3 µM)	35 (≈ 66.3 µM)	65 (≈ 123 µM)	55 (≈ 104 µM)	18.6	23.6	
CCn1cc(C(=O)O)c(=O)c2cc(F)c(N3CCN(CC(=O)Nc4nc5ccc([N+](=O)[O-])cc5s4)CC3)cc21						55 (≈ 99.2 µM)	105 (≈ 189 µM)	125 (≈ 225 µM)	15 (≈ 27 µM)	75 (≈ 135 µM)	17.8	27	
CCn1cc(C(=O)O)c(=O)c2cc(F)c(N3CCN(CC(=O)Nc4nc5ccc(Cl)cc5s4)CC3)cc21						10 (≈ 18.4 µM)	15 (≈ 27.6 µM)	50 (≈ 91.9 µM)	2 (≈ 3.68 µM)	25 (≈ 46 µM)	15.2	23.6	
COc1c(N2CCN(CC(=O)Nc3nc4c(C)cccc4s3)C(C)C2)c(F)cc2c(=O)c(C(=O)O)cn(C3CC3)c12 (stereo not given)						85 (≈ 147 µM)	70 (≈ 121 µM)	75 (≈ 129 µM)	120 (≈ 207 µM)	60 (≈ 104 µM)	20.8	32.4	
O=C(CN1CCN(c2cc3c(cc2F)c(=O)c(C(=O)O)cn3C2CC2)CC1)Nc1nc2ccc(F)cc2s1						60 (≈ 111 µM)	35 (≈ 64.9 µM)	80 (≈ 148 µM)	40 (≈ 74.1 µM)	125 (≈ 232 µM)	17	27.8	

More lines, main results first:

MIC (Escherichia coli [1]) [µM]	MIC (Enterobacter cloacae) [µM]	MIC (Klebsiella pneumoniae [2]) [µM]	MIC [3] [µM]	MIC (Pseudomonas aeruginosa [4]) [µM]	MIC (Pseudomonas aeruginosa [5]) [µg/mL]	MIC (Staphylococcus aureus [6]) [µg/mL]	MIC (Escherichia coli [7]) [µg/mL]	MIC (Bacillus subtilis) [µg/mL]	MIC (Paenibacillus polymyxa) [µg/mL]	SMILES	Activity (Mus musculus)	Time (Metaphire posthuma) [min]	also measured
≤ 0.04	≤ 0.04	2.97 (≈ 2 µg/mL)	23.7 (≈ 16 µg/mL)	1.48 (≈ 0.999 µg/mL)						COc1ccc(-c2nn(CN3CCN(c4cc5c(cc4F)c(=O)c(C(=O)O)cn5[C@@H]4C[C@@H]4F)CC3)c(=S)n2-c2ccccc2)cc1OC			
≤ 0.05	≤ 0.05	1.59 (≈ 1 µg/mL)	6.35 (≈ 4 µg/mL)	1.59 (≈ 1 µg/mL)						O=C(O)c1cn([C@@H]2C[C@@H]2F)c2cc(N3CCN(Cn4nc(-c5cccc(O)c5)n(-c5ccccc5)c4=S)CC3)c(F)cc2c1=O			
≤ 0.05	≤ 0.05	0.78 (≈ 0.503 µg/mL)	6.21 (≈ 4 µg/mL)	3.1 (≈ 2 µg/mL)						COc1ccccc1-c1nn(CN2CCN(c3cc4c(cc3F)c(=O)c(C(=O)O)cn4[C@@H]3C[C@@H]3F)CC2)c(=S)n1-c1ccccc1			
0.1 (≈ 0.0616 µg/mL)	≤ 0.05	3.25 (≈ 2 µg/mL)	13 (≈ 8 µg/mL)	3.25 (≈ 2 µg/mL)						O=C(O)c1cn([C@@H]2C[C@@H]2F)c2cc(N3CCN(Cn4nc(-c5ccncc5)n(-c5ccccc5)c4=S)CC3)c(F)cc2c1=O			
≤ 0.05	≤ 0.05	1.55 (≈ 0.999 µg/mL)	12.4 (≈ 8.01 µg/mL)	6.21 (≈ 4 µg/mL)						COc1cccc(-c2nn(CN3CCN(c4cc5c(cc4F)c(=O)c(C(=O)O)cn5[C@@H]4C[C@@H]4F)CC3)c(=S)n2-c2ccccc2)c1			
≤ 0.05	≤ 0.05	1.63 (≈ 1 µg/mL)	13 (≈ 8 µg/mL)	1.63 (≈ 1 µg/mL)						O=C(O)c1cn([C@@H]2C[C@@H]2F)c2cc(N3CCN(Cn4nc(-c5cccnc5)n(-c5ccccc5)c4=S)CC3)c(F)cc2c1=O			
≤ 0.04	≤ 0.04	1.45 (≈ 0.952 µg/mL)	5.81 (≈ 3.82 µg/mL)	1.45 (≈ 0.952 µg/mL)						Cc1cc(C)cc(-c2nn(CN3CCN(c4cc5c(cc4F)c(=O)c(C(=O)O)cn5[C@@H]4C[C@@H]4F)CC3)c(=S)n2Cc2ccccc2)c1			
0.1 (≈ 0.0631 µg/mL)	≤ 0.05	1.59 (≈ 1 µg/mL)	12.7 (≈ 8 µg/mL)	1.59 (≈ 1 µg/mL)						O=C(O)c1cn([C@@H]2C[C@@H]2F)c2cc(N3CCN(Cn4nc(-c5ccccc5O)n(-c5ccccc5)c4=S)CC3)c(F)cc2c1=O			
≤ 0.05	≤ 0.05	1.59 (≈ 1 µg/mL)	12.7 (≈ 8 µg/mL)	0.79 (≈ 0.497 µg/mL)						O=C(O)c1cn([C@@H]2C[C@@H]2F)c2cc(N3CCN(Cn4nc(-c5ccncc5)n(Cc5ccccc5)c4=S)CC3)c(F)cc2c1=O			
